Laboratory results: the supplement of paper PMC10307832

Tests used:
Assay in all cases: relative viability (nuclei count vs DMSO), 5 days (fraction); higher = more cells survive
Tipifarnib + Vorinostat = compound: Cn1cncc1[C@@](N)(c1ccc(Cl)cc1)c1ccc2c(c1)c(-c1cccc(Cl)c1)cc(=O)n2C [Tipifarnib] + O=C(CCCCCCC(=O)Nc1ccccc1)NO [Vorinostat] (partner 1 µM)
Outline: (§1)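 Lung cancer cell lines were pin-tool dosed in 1536-well plates on the day after seeding, with either a lone drug or a fixed anchor-drug dose plus five library-drug doses (not always all listed) in √10 steps. Nuclei were counted on 4× images after 5 days. Relative viability is the ratio of treated-well to vehicle-well nuclei counts, with each value a median of duplicate plates.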

Tipifarnib + Dasatinib = compound: Cn1cncc1[C@@](N)(c1ccc(Cl)cc1)c1ccc2c(c1)c(-c1cccc(Cl)c1)cc(=O)n2C [Tipifarnib] + Cc1nc(Nc2ncc(C(=O)Nc3c(C)cccc3Cl)s2)cc(N2CCN(CCO)CC2)n1 [Dasatinib] (partner 0.075 µM)
Outline: as §1

Tipifarnib + Pictilisib = compound: Cn1cncc1[C@@](N)(c1ccc(Cl)cc1)c1ccc2c(c1)c(-c1cccc(Cl)c1)cc(=O)n2C [Tipifarnib] + CS(=O)(=O)N1CCN(Cc2cc3nc(-c4cccc5[nH]ncc45)nc(N4CCOCC4)c3s2)CC1 [Pictilisib] (partner 1 µM)
Outline: as §1

Tipifarnib + Crizotinib = compound: Cn1cncc1[C@@](N)(c1ccc(Cl)cc1)c1ccc2c(c1)c(-c1cccc(Cl)c1)cc(=O)n2C [Tipifarnib] + C[C@@H](Oc1cc(-c2cnn(C3CCNCC3)c2)cnc1N)c1c(Cl)ccc(F)c1Cl [Crizotinib] (partner 1 µM)
Outline: as §1

Cell Line	relative viability (Tipifarnib + Vorinostat; first compound 0.01 µM)	relative viability (Tipifarnib + Vorinostat; first compound 0.03162 µM)	relative viability (Tipifarnib + Vorinostat; first compound 0.1 µM)	relative viability (Tipifarnib + Vorinostat; first compound 0.3162 µM)	relative viability (Tipifarnib + Vorinostat; first compound 1 µM)	relative viability (Tipifarnib + Dasatinib; first compound 0.01 µM)	relative viability (Tipifarnib + Dasatinib; first compound 0.03162 µM)	relative viability (Tipifarnib + Dasatinib; first compound 0.1 µM)	relative viability (Tipifarnib + Dasatinib; first compound 0.3162 µM)	relative viability (Tipifarnib + Dasatinib; first compound 1 µM)	relative viability (Tipifarnib + Pictilisib; first compound 0.01 µM)	relative viability (Tipifarnib + Pictilisib; first compound 0.03162 µM)	relative viability (Tipifarnib + Pictilisib; first compound 0.1 µM)	relative viability (Tipifarnib + Pictilisib; first compound 0.3162 µM)	relative viability (Tipifarnib + Pictilisib; first compound 1 µM)	relative viability (Tipifarnib + Crizotinib; first compound 0.01 µM)	relative viability (Tipifarnib + Crizotinib; first compound 0.03162 µM)	relative viability (Tipifarnib + Crizotinib; first compound 0.1 µM)	relative viability (Tipifarnib + Crizotinib; first compound 0.3162 µM)	relative viability (Tipifarnib + Crizotinib; first compound 1 µM)
LXF-289	0.775	0.755	0.665	0.59	0.332	0.218	0.237	0.249	0.217	0.0926	0.86	0.793	0.735	0.699	0.464	0.769	0.759	0.715	0.694	0.64
NCI-H23	0.543	0.31	0.299	0.205	0.167	0.76	0.711	0.667	0.473	0.282	0.469	0.448	0.312	0.268	0.232	0.579	0.491	0.386	0.311	0.249
NCI-H322M	0.869	0.991	0.813	0.863	0.725	0.236	0.27	0.259	0.246	0.285	0.533	0.543	0.47	0.464	0.481	0.874	0.854	0.79	0.463	0.587
NCI-H358	0.638	0.431	0.365	0.309	0.247	0.142	0.224	0.157	0.169	0.155	0.387	0.367	0.362	0.347	0.268	0.563	0.261	0.35	0.245	0.23
NCI-H441	1.08	0.724	0.68	0.431	0.44	0.592	0.516	0.484	0.396	0.277	0.489	0.461	0.463	0.328	0.212	0.723	0.465	0.492	0.346	0.277
NCI-H460	0.734	0.329	0.283	0.116	0.116	0.512	0.514	0.307	0.146	0.0594	0.42	0.396	0.379	0.275	0.126	1.12	0.249	0.133	0.0704	0.0599
NCI-H520	0.781	0.695	0.599	0.515	0.47	0.163	0.185	0.183	0.163	0.142	0.283	0.227	0.243	0.275	0.166	1.05	0.598	0.645	0.341	0.345
NCI-H596	1.11	0.462	0.467	0.456	0.434	0.612	0.653	0.527	0.423	0.384	0.392	0.365	0.354	0.373	0.312	1.09	0.974	1.03	0.945	0.813
